Where two headings read alike, the source gives them in different places.

Test [1] has as its target NS3/4A protease gt 3a (Hepatitis C virus genotype 3a, UniProt Q81258). Nature of the test: HCV NS3 protease time-resolved fluorescence (TRF) assay, NS3/4A inhibitory activity (Ki), gt 3a. The conditions noted are these: genotype 3a NS3/4A; read-out: Enzyme Activity gt 3a Ki. Format: biochemical. The protocol:
(§1) The HCV NS3 protease inhibitory activity of the present compounds may be tested using assays known in the art. One such assay is HCV NS3 protease time-resolved fluorescence (TRF) assay as described below and in International Patent Application Publication WO2006/102087. Other examples of such assays are described in e.g., International Patent Application Publication WO2005/046712. HCV NS3 protease inhibitors, such as those described herein have a Ki less than 50 μM, such as less than 10 μM, and less than 100 nM. Ki is determined by an NS3 protease assay. The assay is performed in a final volume of 100 μl in assay buffer containing 50 mM HEPES, pH 7.5, 150 mM NaCl, 15% glycerol, 0.15% TRITON X-100, 10 mM DTT, and 0.1% PEG 8000. NS3 protease is pre-incubated with various concentrations of inhibitors in DMSO for 30 minutes. The reaction is initiated by adding the TRF peptide substrate (final concentration 100 nM). NS3 mediated hydrolysis of the substrate is quenched after 1 hour at room temperature with 100 μl of 500 mM MES, pH 5.5. Product fluorescence is detected using either a VICTOR V2 or FUSION fluorophotometer (Perkin Elmer Life and Analytical Sciences) with excitation at 340 nm and emission at 615 nm with a 400 μs delay. Testing concentrations of different enzyme forms are selected to result in a signal to background ratio (S/B) of 10-30. IC50 values are derived using a standard four-parameter fit to the data. Ki values are derived from IC50 values using the following formula,
(§2) IC50=Ki(1+[S]/KM), Eqn (1),
(§3) where [S] is the concentration of substrate peptide in the reaction and KM is the Michaelis constant. See P. Gallinari et al., 38 BIOCHEM. 5620-32 (1999); P. Gallinari et al., 72 J. VIROL. 6758-69 (1998); M. Taliani et al., 240 ANAL. BIOCHEM. 60-67 (1996).
(§4) One such assay is HCV NS3 protease time-resolved fluorescence (TRF) assay as described below and in Mao et al., Anal Biochem. 373:1-8, 2008 and International Patent Application Publication WO 2006/102087. A NS3 protease assay can be performed, for example, in a final volume of 100 μl assay buffer containing 50 mM HEPES, pH 7.5, 150 mM NaCl, 15% glycerol, 0.15% TRITON X-100, 10 mM DTT, and 0.1% PEG 8000. NS3 and NS4A protease is pre-incubated with various concentrations of inhibitors in DMSO for 30 minutes. The reaction is initiated by adding the TRF peptide substrate (final concentration 100 nM). NS3 mediated hydrolysis of the substrate is quenched after 1 hour at room temperature with 100 μl of 500 mM MES, pH 5.5. Product fluorescence is detected using either a VICTOR V2 or FUSION fluorophotometer (Perkin Elmer Life and Analytical Sciences) with excitation at 340 nm and emission at 615 nm with a 400 μs delay. Testing concentrations of different enzyme forms are selected to result in a signal to background ratio (S/B) of 10-30. IC50 values are derived using a standard four-parameter fit to the data. Ki values are derived from IC50 values using the following formula,
(§5) where [S] is the concentration of substrate peptide in the reaction and KM is the Michaelis constant. See P. Gallinari et al., 38 BIOCHEM. 5620-32 (1999); P. Gallinari et al., 72 J. VIROL. 6758-69 (1998); M. Taliani et al., 240 ANAL. BIOCHEM. 60-67 (1996); Mao et al., Analytical Biochemistry 373: 1-8, 2008. Measuring Compound Inhibitory Potency (Replicon EC50 (nM))

Test [2] deals with gt 1b Replicon. In words: HCV replicon assay, compound inhibitory potency (Replicon EC50). Format: cell-based. The conditions noted are these: Hepatitis C virus, GT1B. The protocol: Measurement of inhibition by compounds was performed using the HCV replicon system. Several different replicons encoding different HCV genotypes or mutations were used. In addition, potency measurements were made using different formats of the replicon assay, including different ways of measurements and different plating formats. See Jan M. Vrolijk et al., A replicons-based bioassay for the measurement of interferons in patients with chronic hepatitis C, 110 J. VIROLOGICAL METHODS 201 (2003); Steven S. Carroll et al., Inhibition of Hepatitis C Virus RNA Replication by 2′-Modified Nucleoside Analogs, 278(14) J. BIOLOGICAL CHEMISTRY 11979 (2003). However, the underlying principles are common to all of these determinations, and are outlined below.
Stable neomycin phosphotransferase encoding replicon-harboring cell lines were used, so all cell lines were maintained under G418 selection prior to the assay. In some cases the cell lines encoded a luciferase:Neor fusion and could be assayed either directly by determination of RNA copy number, or indirectly through measurement of the luciferase activity.
To initiate an assay, replicon cells were plated in the presence of a dilution series of test compound in the absence of G418. Typically, the assays were performed in a 96-well plate format for manual operation, or a 384 well plate in an automated assay. Replicon cells and compound were incubated for 24-48 hours, depending on the assay. At the end of the assay, cells are washed free of media and compound and then lysed. For direct quantitation, RNA levels were measured by ^32P-probe hybridization and protection, or in a TAQMAN based assay and normalized to cellular cyclophilin A RNA levels. In some cases, luciferase activity was measured using a conventional luciferase assay. In all cases EC50 determinations were calculated as a percent of a DMSO control by fitting the data to a four parameter fit function.

The target of test [3] is NS3/4A protease gt 1b A156V (Hepatitis C virus genotype 1b, UniProt P26663, A1182V). In words: HCV NS3 protease time-resolved fluorescence (TRF) assay, NS3/4A inhibitory activity (Ki), gt 1b A156V mutant. Format: biochemical, hepatitis C virus (HCV). On the procedure:
as §1, §2, §3, §4, §5

The target of test [4] is NS3/4A protease gt 1b (Hepatitis C virus genotype 1b, UniProt P26663). Nature of the test: HCV NS3 protease time-resolved fluorescence (TRF) assay, NS3/4A inhibitory activity (Ki), gt 1b. Format: biochemical. The conditions noted are these: genotype 1b NS3/4A; read-out: Enzyme Activity gt 1b Ki. On the procedure: as §1, §2, §3, §4, §5
Setting [5] is: 10% Fetal Bovine Serum, read-out: gt 1b Replicon EC50 10% FBS.
The mark [6] stands for this setting: 50% Normal Human Serum, read-out: gt 1b Replicon EC50 50% NHS.

Turning to `C=C[C@@H]1C[C@]1(NC(=O)[C@@H]1C[C@@H]2CN1C(=O)[C@H](C1CCCC1)NC(=O)O[C@]1(C)C[C@H]1CCCCCc1nc3cccc(OC)c3nc1O2)C(=O)NS(=O)(=O)C1(C)CC1` [Example I-1, (1R,18R,20R,24S,27S)-24-Cyclopentyl-6-methoxy-20-methyl-N-[(1R,2S)-1-({[(1-methylcyclopropyl)sulfonyl]amino}carbonyl)-2-vinylcyclopropyl]-22,25-dioxo-2,21-dioxa-4,11,23,26-tetraazapentacyclo[24.2.1.0^3,12.0^5,10.0^18,20]nonacosa-3,5,7,9,11-pentaene-27-carboxamide], the Ki in test [1] came out at 1.6 nM; in test [3], 1 nM; in test [4], 0.04 nM. The concentration giving a half-maximal response (EC50) in test [2] (setting [5]) worked out at 2 nM; in test [2] (setting [6]) it was 7.6 nM.

Take `C=C[C@@H]1C[C@]1(NC(=O)[C@@H]1C[C@@H]2CN1C(=O)[C@H](C1CCCC1)NC(=O)O[C@]1(C)CCC[C@H]1CCCCCc1nc3ccc(OC)cc3cc1O2)C(=O)NS(=O)(=O)C1CC1` [Example I-3, (1R,18R,22R,26S,29S)-26-Cyclopentyl-N-((1R,2S)-1-{[(cyclopropylsulfonyl)amino]carbonyl}-2-vinylcyclopropyl)-7-methoxy-22-methyl-24,27-dioxo-2,23-dioxa-11,25,28-triazapentacyclo[26.2.1.0^3,12.0^5,10.0^18,22]hentriaconta-3(12),4,5,7,9,10-hexaene-29-carboxamide]: the values for the Ki in test [1], in test [3] and in test [4] were 0.5 nM, 3.3 nM and 0.03 nM, respectively. The EC50 in test [2] (setting [5]) came out at 6 nM; in test [2] (setting [6]) it was 23 nM.

Turning to `C=C[C@@H]1C[C@]1(NC(=O)[C@@H]1C[C@@H]2CN1C(=O)[C@H](C1CCCC1)NC(=O)O[C@]1(C)C[C@H]1CC/C=C/Cc1c(nc3ccccc3c1O)O2)C(=O)NS(=O)(=O)C1CC1` [Example I-4, (1R,14E,18R,20R,24S,27S)-24-Cyclopentyl-N-((1R,2S)-1-{[(cyclopropylsulfonyl)amino]carbonyl}-2-vinylcyclopropyl)-11-hydroxy-20-methyl-22,25-dioxo-2,21-dioxa-4,23,26-triazapentacyclo[24.2.1.0^3,12.0^5,10.0^18,20]nonacosa-3,5,7,9,11,14-hexaene-27-carboxamide], the Ki in test [1] came out at 0.7 nM; in test [3] it was 0.9 nM; in test [4] it was 0.04 nM. Besides, the EC50 in test [2] (setting [5]) was determined as 7 nM; in test [2] (setting [6]), 17 nM.

In the case of `C=C[C@@H]1C[C@]1(NC(=O)[C@@H]1C[C@@H]2CN1C(=O)[C@H](C(C)(C)C)NC(=O)O[C@]1(C)C[C@H]1CCC/C=C/c1cccc3c1CN(C3)C(=O)O2)C(=O)NS(=O)(=O)C1CC1` [Example I-5, (1aR,5S8S,10R,19E,23aR)-5-tert-butyl-N-{(1R,2S)-1-[(cyclopropylsulfonyl)carbamoyl]-2-ethenylcyclopropyl}-1a-methyl-3,6,12-trioxo-1a,3,4,5,6,9,10,14,21,22,23,23a-dodecahydro-1H,8H-7,10:13,15-dimethanocycloproa[n][4,13,2,8,11]benzodioxatriazacyclodocosine-8(12H)-carboxamide], the Ki in test [1] is 1 nM; in test [3], 1.3 nM; in test [4] it was 0.02 nM. Also, the EC50 in test [2] (setting [5]) came to 3 nM; in test [2] (setting [6]), 22 nM.

On to `C=C[C@@H]1C[C@]1(NC(=O)[C@@H]1C[C@@H]2CN1C(=O)[C@H](C(C)(C)C)NC(=O)O[C@]1(C)C[C@H]1CCCCCc1cccc3c1CN(C3)C(=O)O2)C(=O)NS(=O)(=O)C1CC1` [Example I-6, (1aR,5S,8S,10R,23aR)-5-tert-butyl-N-{(1R,2S)-1-[(cyclopropylsulfonyl)carbamoyl]-2-ethenylcyclopropyl}-1a-methyl-3,6,12-trioxo-1a,3,4,5,6,9,10, 14,19,20,21,22,23,23a-tetradecahydro-1H,8H-7,10:13,15-dimethano cyclopropa [n][4,13,2,8,11] benzodioxatriaza cyclodocosine-8(12H)-carboxamide], for which the inhibitory constant (Ki) in test [1] came out at 2.9 nM; in test [3], 0.3 nM; in test [4] it was 0.02 nM. Further, the 50% effective concentration (EC50) is 3 nM in test [2] (setting [5]) and 54 nM in test [2] (setting [6]).

As to `CC[C@@H]1C[C@]1(NC(=O)[C@@H]1C[C@@H]2CN1C(=O)[C@H](C(C)(C)C)NC(=O)O[C@]1(C)C[C@H]1CCCCCc1cccc3c1CN(C3)C(=O)O2)C(=O)NS(=O)(=O)C1CC1` [Example I-7, (1aR,5S,8S,10R,23aR)-5-tert-butyl-N-{(1R,2R)-1-[(cyclopropylsulfonyl)carbamoyl]-2-ethylcyclopropyl}-1a-methyl-3,6,12-trioxo-1a,3,4,5,6,9,10,14,19, 20,21,22,23,23a-tetradecahydro-1H,8H-7,10:13,15-dimethano cyclopropa[n][4,13,2,8, 11]benzodioxatriaza cyclodocosine-8(12H)-carboxamide], the results for the Ki in test [1], in test [3] and in test [4] were 8.7 nM, 2.2 nM and 0.02 nM, respectively. Besides, the figures for the EC50 in test [2] (setting [5]) and in test [2] (setting [6]) were 4 nM and 27 nM, respectively.

For the compound `C=C[C@@H]1C[C@]1(NC(=O)[C@@H]1C[C@@H]2CN1C(=O)[C@H](C1CCCC1)NC(=O)O[C@@]1(C)C[C@@H]1CC/C=C/Cn1c(nc3cc(Cl)ccc3c1=O)O2)C(=O)NS(=O)(=O)C1CC1` [Example I-25, (1aS,5S,8S,10R,20E,23aS)-14-chloro-5-cyclopentyl-N-{(1R,2S)-1-[(cyclopropylsulfonyl)carbamoyl]-2-ethenylcyclopropyl}-1a-methyl-3,6,17-trioxo-1,1a,3,4,5,6,9, 10,19,22,23,23a-dodecahydro-8H,17H-7,10-methanocyclo propa[18,19][1,10,3,6, 12]dioxatriazacyclo nonadecino[11,12-b]quinazoline-8-carboxamide], the Ki in test [1] came out at 41 nM; in test [3] it was 142 nM; in test [4] it was 0.2 nM.

For the origin of these results see patent publication US20130178413A1, “HCV NS3 PROTEASE INHIBITORS” (priority 2010, published 2013).
